Test results: patent US20110027354A1, “ANTI-PA[…]” (priority 2008, published 2011)

Columns and labels:
Type in all cases: in vivo, mice
[1] = tested on: reactive oxygen species (ROS); assay: Determination of ROS formation; details: striatum; for ROS level: drug alone (no MPTP); for effect on MPTP-induced increase in ROS level: one day after final MPTP, vs. MPTP alone
Procedure: The extent of reactive oxygen species (ROS) formation in the prefrontal cortex was assessed by measuring the conversion from 2′,7′-dichlorofluorescin diacetate (DCFH-DA) to dichlorofluoresin. (DCF) as describe by Bourre et al. with slight modification (Sutsumi, S et al., 2002). Brain homogenates were added to a tube containing 2 ml of PBS with 10 nmole of DCFH-DA, dissolved in methanol. Mixtures were incubated at 37° C. for 3 h and then measured the […] at 480 nm excitation and 525 nm emission. DCF is used as a standard.

phospho-Akt = assay: Phosphorylation of Akt at Ser473 (western blot); details: striatum; for effect on MPTP-induced decrease in phospho-Akt: vs. MPTP alone
Procedure: (§1) The western blot assays were performed as described previously (thong et al., 1997). Tissues were homogenized in lysis buffer, containing 200 mM Tris HCl (pH 6.8), 1% SDS, 5 mM ethylene glycol tetraacetic acid, 5 mM ethylenediaminetetraacetic acid, 10% glycerol, 1× phosphatase inhibitor cocktail I, 1× protease inhibitor cocktail. The supernatant fraction was subsequently centrifuged at 30,000×g for 30 min. The resulting pellet was resuspended in the sample buffer. Proteins (20-50 ug/lane) were separated by 6%, 8%, 10% or 15% sodium dodecyl sulfate-polyacrylamide gel electrophoresis and transferred onto the nitrocellulose membranes. Following transfer, the nitrocellulose membranes were preincubated with 5% non-fat milk and incubated overnight at 4° C. with anti-β-actin (Sigma, 1:50000), anti-TH (Chemicon, 1:5000), anti-TH phosphoser19 (Chemicon, 1:5000), anti-TH phosphoser31 (Chemicon, 1:500), anti-TH phosphoser40 (Chemicon, 1:500), anti-F 4/80 (Serotec, 1:500), anti-BDNF (Chemicon, 1:500), anti-GDNF (Santa-Cruz, 1:250), anti-Akt (Cell signaling, 1:1000), anti-phospho Akt ser 473 (Cell signaling, 1:1000), anti-PI3K (Cell signaling, 1:1000), anti-phospho PI3K (Cell signaling, 1:500) and anti-α-synuclein (BD Transduction, 1:500) antibody. After incubation with primary antibody, membranes were incubated with the secondary anti-rabbit IgG, Horseradish Peroxidase (1:1000 dilution, Amersham) or anti-mouse IgG, Horseradish Peroxidase (1:1000, Sigma), or anti-goat IgG, Horseradish Peroxidase (1:1000, Sigma) for 2 h, washed. Subsequently visualized with the Amersham ECL system (Amersham, Arlington Heights, Ill., USA).

[2] = tested on: tyrosine hydroxylase (TH); assay: TH-immunoreactivity by immunocytochemistry; details: for effect on MPTP-induced decrease of TH-immunoreactivity (TH-IR): immunocytochemistry (ICC), vs. MPTP alone; for TH-immunoreactivity: drug alone (no MPTP)
Procedure: Animals were sacrified at 1 day after MPTP-treatment. They were anesthetized with 60% urethane and perfused transcardially with 200 ml of 50 mM phosphate buffered saline (PBS), followed by 50 ml of paraformaldehyde in PBS. The brain were fixed at 4° C. for 24 h in the same fixative and then cryoprotected in 30% sucrose. The brains were sectioned on a horizontal sliding microstome into 35 μm transverse free-floating sections.
The immunocytochemistry was performed as described previously (Kim et al., 2000a; Kim et al., 2000b). Briefly, prior to incubation with the primary antibodies, sections were preincubated with 0.3% hydrogen peroxide in PBS for 30 min (to block endogenous peroxidase activity), then in PBS containing 0.4% Triton X-100 for 20 min and 1% no: mal serum for 20 min. After a 48 h incubation with the primary antibody at 4° C., sections were incubated with the secondary biotinylated antisera (1:1000 dilution; Vector, Brulingame, Calif.) for 1 h, washed, and immersed in avidin-biotin-peroxidase complex (ABC Elite kit, Vector) for 1 hr. Sections were always washed three times with PBS between each incubation step. 3,3′-Diaminobenzidine (DAB) was used as the chromogen. The quantitative analyses were performed using a computer-based image analysis system (Optimas version 6.2; Neurolucida Program) (Kim et al., 1999).

protein carbonyl = assay: Determination of protein carbonyl (Oxyblot assay); details: striatum; for protein carbonyl expression: drug alone (no MPTP); for effect on MPTP-induced increase in protein carbonyl expression: one day after final MPTP, vs. MPTP alone
Procedure: Total protein ([…]) was used to perform the Oxyblot assay. The amount of oxidized proteins was measured using the Oxyblot kit (Chemicon International, CA), following the manufacturer's instructions. Briefly, the protein carbonyl content was measured by first forming labeled protein hydrazone derivatives using 2,4-dinitrophenylhydrazide (DNP). The INP-derivatized protein samples were separated by polyacrylamide gel electrophoresis followed by Western blotting. Blots were then incubated with primary antibody specific to the DNP moiety, followed by incubation with a horseradish peroxidase-antibody conjugate directed against the primary antibody. The blots were then treated with chemiluminescent reagents (Amersham) (Gemma et al., 2004).

[3] = tested on: glial cell line-derived neurotrophic factor (GDNF); assay: GDNF expression (western blot); details: striatum; for effect on MPTP-induced reduction of GDNF expression: pre-treatment, vs. MPTP alone
Procedure: as §1

phospho-PI3K = assay: Phosphorylation of PI3K (western blot); details: striatum; for effect on MPTP-induced decrease in phospho-PI3K: vs. MPTP alone
Procedure: as §1

Row | SMILES | ROS level [1] | effect on MPTP-induced increase in ROS level [1] | attenuation of ROS increase compared with selegiline ([1]; vs. selegiline+MPTP) | effect on MPTP-induced decrease in phospho-Akt (phospho-Akt) | attenuation of phospho-Akt decrease compared with selegiline (phospho-Akt; vs. selegiline+MPTP) | effect on MPTP-induced decrease of TH-immunoreactivity (TH-IR) ([2]; SN) | TH-immunoreactivity [2] | attenuation of TH-IR decrease compared with selegiline ([2]; striatum and SN, ICC, vs. selegiline+MPTP) | effect on MPTP-induced decrease of TH-immunoreactivity (TH-IR) ([2]; striatum) | protein carbonyl expression (protein carbonyl) | effect on MPTP-induced increase in protein carbonyl expression (protein carbonyl) | attenuation of protein carbonyl increase compared with selegiline (protein carbonyl; vs. selegiline+MPTP) | effect on MPTP-induced reduction of GDNF expression [3] | enhancement of GDNF expression compared with selegiline ([3]; vs. selegiline+MPTP) | effect on MPTP-induced decrease in phospho-PI3K (phospho-PI3K) | attenuation of phospho-PI3K decrease compared with selegiline (phospho-PI3K; vs. selegiline+MPTP)
1 | C#CCN(C)CCc1ccccc1 [MPPE, N-methyl-N-propynyl-2-phenylethylamine] | a little induction | attenuated | appeared to be more underlined in the MPPE-pretreated mice | significantly attenuated | more pronounced in MPPE-treated mice | significantly attenuated | did not show any significant effect | more evident | attenuated | a little induction | attenuated | appeared to be more underlined in the MPPE-pretreated mice | significantly attenuated | more effective | significantly attenuated | more pronounced in MPPE-treated mice
2 | C#CCN(C)[C@H](C)Cc1ccccc1 [selegiline, reference compound] | a little induction | attenuated |  | significantly attenuated |  | significantly attenuated | did not show any significant effect |  | attenuated | a little induction | attenuated |  | significantly attenuated |  | significantly attenuated | 
